# Test results from ChEMBL document CHEMBL1201862, “PubChem BioAssay data set” (2004).
#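 Values below derive from 48-hour exposures of cells grown in 96-well plates, with endpoints linearly interpolated between the two concentrations bracketing the appropriate inhibition level. GI50 = concentration required for 50% inhibition of growth.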 Calls of active or inactive are those of the source. Rule as the data show it: active = GI50 up to about 1.1 µM and inactive = higher.
# Legend:
# Assay in all cases: inhibition of tumour cell growth, NCI panel, 48 h
# A498 = system: A498
# KM12 = system: KM12
# SR = system: SR
# M14 = system: M14
# HT-29 = system: HT-29
# HOP-92 = system: HOP-92
# NCI-H226 = system: NCI-H226
# K562 = system: K562
# RXF 393 = system: RXF 393
# MCF7 = system: MCF7
# HCT-116 = system: HCT-116
# Malme-3M = system: Malme-3M
# HCC 2998 = system: HCC 2998
# A549 = system: A549
# SF-268 = system: SF-268
# Hs-578T = system: Hs-578T
# UO-31 = system: UO-31
# NCI/ADR-RES = system: NCI/ADR-RES
# MOLT-4 = system: MOLT-4
# RPMI-8226 = system: RPMI-8226
# SN12C = system: SN12C
# IGROV-1 = system: IGROV-1
# SNB-19 = system: SNB-19
# HOP-62 = system: HOP-62
# DU-145 = system: DU-145
# SF-295 = system: SF-295
# CCRF-CEM = system: CCRF-CEM
# SK-MEL-2 = system: SK-MEL-2
# SNB-75 = system: SNB-75
# ACHN = system: ACHN
# MDA-MB-231 = system: MDA-MB-231
# BT-549 = system: BT-549
# UACC-257 = system: UACC-257
# SK-MEL-28 = system: SK-MEL-28
# TK-10 = system: TK-10
# NCI-H522 = system: NCI-H522
# NCI-H23 = system: NCI-H23
# OVCAR-8 = system: OVCAR-8
# LOX IMVI = system: LOX IMVI
# PC-3 = system: PC-3
# OVCAR-3 = system: OVCAR-3
# U-251 = system: U-251
# HL-60 = system: HL-60
# UACC-62 = system: UACC-62
# MDA-MB-435 = system: MDA-MB-435
# OVCAR-4 = system: OVCAR-4
# COLO 205 = system: COLO 205
# SW-620 = system: SW-620
# NCI-H460 = system: NCI-H460
# EKVX = system: EKVX
# SK-MEL-5 = system: SK-MEL-5
# MDA-N = system: MDA-N
# OVCAR-5 = system: OVCAR-5
# HCT-15 = system: HCT-15
# T47D = system: T47D
# SK-OV-3 = system: SK-OV-3
# 786-0 = system: 786-0
# CAKI-1 = system: CAKI-1
# SF-539 = system: SF-539
compound,measurement,setting,value
COc1ccc2c(c1)Cc1c(NCCN(C)C)ccc(C(=O)NCCCN(C)CCCNC(=O)c3ccc(NCCN(C)C)c4c3Nc3ccc(OC)cc3C4)c1N2,GI50,A498,< 40.4 nM (active)
same,GI50,KM12,< 10 nM (active)
same,GI50,SR,< 10 nM (active)
same,GI50,M14,150 nM (active)
same,GI50,HT-29,< 10 nM (active)
same,GI50,HOP-92,143 nM (active)
same,GI50,NCI-H226,< 25.4 nM (active)
same,GI50,K562,< 11 nM (active)
same,GI50,RXF 393,154 nM (active)
same,GI50,MCF7,< 10 nM (active)
same,GI50,HCT-116,< 10 nM (active)
same,GI50,Malme-3M,< 10 nM (active)
same,GI50,HCC 2998,< 10 nM (active)
same,GI50,A549,< 10 nM (active)
same,GI50,SF-268,< 10 nM (active)
same,GI50,Hs-578T,< 10 nM (active)
same,GI50,UO-31,362 nM (active)
same,GI50,NCI/ADR-RES,4200 nM (inactive)
same,GI50,MOLT-4,< 10 nM (active)
same,GI50,RPMI-8226,< 10 nM (active)
same,GI50,SN12C,< 10 nM (active)
same,GI50,IGROV-1,< 10 nM (active)
same,GI50,SNB-19,< 10 nM (active)
same,GI50,HOP-62,< 10 nM (active)
same,GI50,DU-145,< 10 nM (active)
same,GI50,SF-295,21.3 nM (active)
same,GI50,CCRF-CEM,< 39.3 nM (active)
same,GI50,SK-MEL-2,< 10 nM (active)
same,GI50,SNB-75,< 10 nM (active)
same,GI50,ACHN,34.3 nM (active)
same,GI50,MDA-MB-231,32.2 nM (active)
same,GI50,BT-549,148 nM (active)
same,GI50,UACC-257,30.3 nM (active)
same,GI50,SK-MEL-28,142 nM (active)
same,GI50,TK-10,72.4 nM (active)
same,GI50,NCI-H522,< 10 nM (active)
same,GI50,NCI-H23,< 21.2 nM (active)
same,GI50,OVCAR-8,< 10 nM (active)
same,GI50,LOX IMVI,< 10 nM (active)
same,GI50,PC-3,< 10 nM (active)
same,GI50,OVCAR-3,< 18.7 nM (active)
same,GI50,U-251,< 10 nM (active)
same,GI50,HL-60,35.8 nM (active)
same,GI50,UACC-62,< 22.8 nM (active)
same,GI50,MDA-MB-435,< 10 nM (active)
same,GI50,OVCAR-4,< 18.4 nM (active)
same,GI50,COLO 205,< 10 nM (active)
same,GI50,SW-620,< 15.8 nM (active)
same,GI50,NCI-H460,< 10 nM (active)
same,GI50,EKVX,116 nM (active)
same,GI50,SK-MEL-5,29.9 nM (active)
same,GI50,MDA-N,< 10 nM (active)
same,GI50,OVCAR-5,< 24.8 nM (active)
same,GI50,HCT-15,728 nM
same,GI50,T47D,150 nM (active)
same,GI50,SK-OV-3,< 10 nM (active)
same,GI50,786-0,< 10 nM (active)
same,GI50,CAKI-1,753 nM (active)
same,GI50,SF-539,209 nM (active)
